Experimental data published in ChEMBL document CHEMBL1154345, “Discovery of tricyclic 5,6-dihydro-1H-pyridin-2-ones as novel, potent, and orally bioavailable inhibitors of HCV NS5B polymerase” (Bioorg Med Chem Lett, 2009).

Experiments:
in vitro [1] = conditions: rhesus monkey
Description: (§2) Metabolic stability in monkey liver microsomes assessed as half life at 5 uM

Cynomolgus monkey [2] = conditions: in vivo, iv, 1 mg/kg
Hepatitis C virus [3] = assay: microbe, parasite or virus in culture; type: functional, organism-based, Hepacivirus hominis, genotype 1b, Huh-luc/neo-ET
Description: Antiviral activity against HCV-1b infected human Huh-luc/neo-ET replicon cells after 72 hrs by luciferase based replicon assay

in vitro [4] = conditions: human, t1/2
Cynomolgus monkey [5] = conditions: in vivo, po, 1 mg/kg
[6] = Clearance in cynomolgus monkey at 1 mg/kg, iv; type: ADME, organism-based, Macaca fascicularis; design: dose 1 mg/kg, route intravenous; conditions: in vivo
in vitro [7] = conditions: human
Description: Metabolic stability in human liver microsomes assessed as compound remaining after 60 mins at 1 uM

[8] = (§1) Oral bioavailability in cynomolgus monkey at 1 mg/kg; type: ADME, organism-based, Macaca fascicularis; conditions: in vivo
Hepatitis C virus [9] = assay: microbe, parasite or virus in culture; type: functional, organism-based, Hepacivirus hominis, subtype 1a, Huh-lunet
Description: Antiviral activity against HCV-1a infected in human Huh-lunet cells after 4 days by luciferase based replicon assay

[10] = Cytotoxicity against human HuH7 cells assessed as GAPDH release; type: cell-based, Huh-7
[11] = Oral bioavailability in cynomolgus monkey at 0.5 mg/kg; type: ADME, organism-based, Macaca fascicularis; conditions: in vivo
[12] = Clearance in cynomolgus monkey at 0.5 mg/kg, iv; type: ADME, organism-based, Macaca fascicularis; design: dose 0.5 mg/kg, route intravenous; conditions: in vivo
Cynomolgus monkey [13] = assay: AUC (0 to infinity) in cynomolgus monkey at 0.5 mg/kg, iv; type: ADME, organism-based, Macaca fascicularis, Plasma; design: time infinity, dose 0.5 mg/kg, route intravenous; conditions: in vivo
in vitro [14] = conditions: rhesus monkey, Stability
Description: (§3) Metabolic stability in monkey liver microsomes assessed as compound remaining after 60 mins at 5 uM

Cynomolgus monkey [15] = assay: AUC (0 to infinity) in cynomolgus monkey at 0.5 mg/kg, po; type: ADME, organism-based, Macaca fascicularis, Plasma; design: time infinity, dose 0.5 mg/kg, route oral; conditions: in vivo
Cynomolgus monkey [16] = assay: as §1; type: ADME, organism-based, Macaca fascicularis; conditions: in vivo
in vitro [17] = conditions: human, Caco-2
Description: Apparent permeability from apical side to basolateral side of human Caco-2 cells at 10 uM after 3 hrs

physchem = conditions: aqueous medium, pH 7.5
Description: Aqueous solubility at pH 7.5

[18] = rhesus monkey, microsomes, 1 h, 5 µM
Description: as §3

[19] = rhesus monkey, microsomes, 5 µM
Description: as §2

[20] = Hepatitis C virus, genotype 1b, Huh-luc/neo-ET, 72 h
[21] = Hepatitis C virus, subtype 1a, Huh-lunet, 96 h

EC50 (Hepatitis C virus [3]; [20]) [nM] | half-life at 1 µM (in vitro [4]; liver microsomes) [h] | remaining at 1 h, 1 µM (in vitro [7]; liver microsomes) [%] | EC50 (Hepatitis C virus [9]; [21]) [nM] | half-life at 1 µM (in vitro [4]; microsomes) [h] | remaining at 1 h, 1 µM (in vitro [7]; microsomes) [%] | SMILES | CC50 [10] [nM] | also measured
6 | > 1 | 70 | 34 |  |  | Cc1cc(CN2C(=O)C(C3=NS(=O)(=O)c4cc(NS(C)(=O)=O)ccc4N3)=C(O)[C@@H]3[C@H]4CC[C@H](C4)[C@@H]32)ccc1F |  | half-life at 5 µM (in vitro [1]; liver microsomes): 0.817 h; AUC (Cynomolgus monkey [2]): 25000 ng·h/mL; AUC (Cynomolgus monkey [5]): 8780 ng·h/mL; clearance [6]: 0.67 mL/min/kg; bioavailability [8]: 35%
0.8 |  |  | 6 | > 1 | 86 | CS(=O)(=O)Nc1ccc2c(c1)S(=O)(=O)N=C(C1=C(O)[C@@H]3C4CCC(CC4)[C@@H]3N(Cc3ccc(F)cc3)C1=O)N2 | > 1000 | 
1 | > 1 | 82 | 55 |  |  | CS(=O)(=O)Nc1ccc2c(c1)S(=O)(=O)N=C(C1=C(O)[C@@H]3C4CCC(CC4)[C@@H]3N(Cc3ccccc3)C1=O)N2 |  | 
8 | > 1 | 100 | 150 |  |  | CS(=O)(=O)Nc1ccc2c(c1)S(=O)(=O)N=C(C1=C(O)[C@@H]3C4CCC(CC4)[C@@H]3N(Cc3ccc(F)c(F)c3F)C1=O)N2 |  | 
10 | > 1 | 87 | 32 |  |  | CS(=O)(=O)Nc1ccc2c(c1)S(=O)(=O)N=C(C1=C(O)[C@@H]3[C@H]4CC[C@H](C4)[C@@H]3N(Cc3ccc(F)c(Cl)c3)C1=O)N2 |  | 
203 |  |  | 760 | > 1 | 84 | CS(=O)(=O)Nc1ccc2c(c1)S(=O)(=O)N=C(C1=C(O)[C@@H]3[C@H]4CC[C@H](C4)[C@@H]3N(Cc3ccc(Cl)cc3)C1=O)N2 |  | 
10 |  |  | 290 | > 1 | 100 | CS(=O)(=O)Nc1ccc2c(c1)S(=O)(=O)N=C(C1=C(O)[C@@H]3[C@H]4CC[C@H](C4)[C@@H]3N(Cc3ccc(F)cc3F)C1=O)N2 |  | 
7 | > 1 | 100 | 37 |  |  | CS(=O)(=O)Nc1ccc2c(c1)S(=O)(=O)N=C(C1=C(O)[C@@H]3[C@H]4CC[C@H](C4)[C@@H]3N(Cc3ccc(F)c(F)c3)C1=O)N2 |  | AUC (Cynomolgus monkey [2]): 44800 ng·h/mL; Papp A→B at 3 h, 10 µM (in vitro [17]): 1.05 ×10⁻⁶ cm/s; t1/2 [19]: 1 h; AUC (Cynomolgus monkey [5]): 20300 ng·h/mL; clearance [6]: 0.37 mL/min/kg; solubility (physchem): > 100 µM; bioavailability [8]: 45%; Stability [18]: 95%
4 | > 1 | 100 | 200 |  |  | CS(=O)(=O)Nc1ccc2c(c1)S(=O)(=O)N=C(C1=C(O)[C@@H]3[C@@H]4CC[C@@H](C4)[C@@H]3N(Cc3ccc(F)c(Cl)c3)C1=O)N2 |  | 
2 | > 1 | 81 | 23 |  |  | CS(=O)(=O)Nc1ccc2c(c1)S(=O)(=O)N=C(C1=C(O)[C@@H]3C4CCC(CC4)[C@@H]3N(Cc3ccc(F)c(F)c3)C1=O)N2 |  | 
2 | > 1 | 100 | 19 |  |  | CS(=O)(=O)Nc1ccc2c(c1)S(=O)(=O)N=C(C1=C(O)[C@@H]3C4CCC(CC4)[C@@H]3N(Cc3ccc(F)c(Cl)c3)C1=O)N2 |  | 
1 | > 1 | 100 | 25 |  |  | CS(=O)(=O)Nc1ccc2c(c1)S(=O)(=O)N=C(C1=C(O)[C@@H]3C4CCC(CC4)[C@@H]3N(Cc3ccc(F)cc3Cl)C1=O)N2 |  | 

Second part, the compound before the results:

SMILES | EC50 (Hepatitis C virus [3]; [20]) [nM] | half-life at 1 µM (in vitro [4]; liver microsomes) [h] | remaining at 1 h, 1 µM (in vitro [7]; liver microsomes) [%] | EC50 (Hepatitis C virus [9]; [21]) [nM] | half-life at 1 µM (in vitro [4]; microsomes) [h] | remaining at 1 h, 1 µM (in vitro [7]; microsomes) [%] | CC50 [10] [nM] | also measured
CS(=O)(=O)Nc1ccc2c(c1)S(=O)(=O)N=C(C1=C(O)C3CC=CCC3N(Cc3ccc(F)cc3)C1=O)N2 (racemic) | 7 | > 1 | 87 | 81 |  |  | > 1000 | 
CS(=O)(=O)Nc1ccc2c(c1)S(=O)(=O)N=C(C1=C(O)[C@H]3[C@@H]4CC[C@@H](C4)[C@H]3N(Cc3ccc(F)cc3)C1=O)N2 | 550 |  |  | 5400 | 0.333 |  | > 33000 | half-life at 5 µM (in vitro [1]; microsomes): > 1 h; bioavailability [11]: 12%; clearance [12]: 6.5 mL/min/kg; AUC (Cynomolgus monkey [13]): 1390 ng·h/mL; remaining at 1 h, 5 µM (in vitro [14]; microsomes): 58%; AUC (Cynomolgus monkey [15]): 163 ng·h/mL
CS(=O)(=O)Nc1ccc2c(c1)S(=O)(=O)N=C(C1=C(O)[C@@H]3[C@H]4CC[C@H](C4)[C@@H]3N(Cc3ccc(F)cc3)C1=O)N2 [SETROBUVIR] | 3 |  |  | 18 | > 1 | 75 | > 100000 | half-life at 5 µM (in vitro [1]; microsomes): > 1 h; AUC (Cynomolgus monkey [2]): 94900 ng·h/mL; AUC (Cynomolgus monkey [5]): 49400 ng·h/mL; clearance [6]: 0.18 mL/min/kg; remaining at 1 h, 5 µM (in vitro [14]; microsomes): 98%; bioavailability [8]: 52%
CS(=O)(=O)Nc1ccc2c(c1)S(=O)(=O)N=C(C1=C(O)C3C4CCC(C4)C3N(Cc3ccc(F)cc3)C1=O)N2 (racemic; 2a) |  |  |  |  | 0.567 |  | > 1000 | half-life at 5 µM (in vitro [1]; microsomes): > 1 h; AUC (Cynomolgus monkey [2]): 63900 ng·h/mL; EC50 (Hepatitis C virus [3]; huh-luc/neo-et): 5 nM; AUC (Cynomolgus monkey [5]): 30700 ng·h/mL; remaining at 1 h, 5 µM (in vitro [14]; microsomes): 91%; F (Cynomolgus monkey [16]): 48%; EC50 (Hepatitis C virus [9]; huh-lunet): 330 nM
CS(=O)(=O)Nc1ccc2c(c1)S(=O)(=O)N=C(C1=C(O)[C@@H]3[C@@H]4CC[C@@H](C4)[C@@H]3N(Cc3ccc(F)cc3)C1=O)N2 | 7 |  |  | 65 | > 1 | 85 | > 1000 | 
CS(=O)(=O)Nc1ccc2c(c1)S(=O)(=O)N=C(C1=C(O)[C@@H]3[C@@H]([C@H]4CC[C@@H]3O4)N(Cc3ccc(F)cc3)C1=O)N2 | 6 | > 1 | 100 | 66 |  |  | > 1000 | half-life at 5 µM (in vitro [1]; liver microsomes): > 1 h; AUC (Cynomolgus monkey [2]): 2650 ng·h/mL; Papp A→B at 3 h, 10 µM (in vitro [17]): 0.08 ×10⁻⁶ cm/s; AUC (Cynomolgus monkey [5]): 90 ng·h/mL; clearance [6]: 6.3 mL/min/kg; solubility (physchem): > 100 µM; remaining at 1 h, 5 µM (in vitro [14]; liver microsomes): 100%; bioavailability [8]: 3%
CS(=O)(=O)Nc1ccc2c(c1)S(=O)(=O)N=C(C1=C(O)[C@@H]3[C@H]4CC[C@H](C4)[C@@H]3N(Cc3cccc(F)c3)C1=O)N2 | 10 |  |  | 330 | > 1 | 85 |  | 
CS(=O)(=O)Nc1ccc2c(c1)S(=O)(=O)N=C(C1=C(O)C3C4CCC(C4)C3N(Cc3ccc(F)cc3)C1=O)N2 (racemic; 2b) |  |  |  |  |  | 73 |  | AUC (Cynomolgus monkey [2]): 5500 ng·h/mL; EC50 (Hepatitis C virus [3]; huh-luc/neo-et): 2 nM; AUC (Cynomolgus monkey [5]): 1350 ng·h/mL; F (Cynomolgus monkey [16]): 25%; EC50 (Hepatitis C virus [9]; huh-lunet): 91 nM; Stability [18]: 92%
CS(=O)(=O)Nc1ccc2c(c1)S(=O)(=O)NC(C1=C(O)[C@@H]3CCC[C@@H]3N(Cc3ccc(F)cc3)C1=O)=N2 | 23 |  |  | 550 | > 1 | 85 | > 100000 | half-life at 5 µM (in vitro [1]; microsomes): > 1 h; solubility (physchem): > 100 µM; remaining at 1 h, 5 µM (in vitro [14]; microsomes): 100%
CS(=O)(=O)Nc1ccc2c(c1)S(=O)(=O)N=C(C1=C(O)[C@H]3[C@H]4CC[C@H](C4)[C@H]3N(Cc3ccc(F)cc3)C1=O)N2 | 270 |  |  | 2500 | > 1 | 75 | > 33000 | half-life at 5 µM (in vitro [1]; microsomes): > 1 h; bioavailability [11]: 26%; clearance [12]: 5.7 mL/min/kg; AUC (Cynomolgus monkey [13]): 1570 ng·h/mL; remaining at 1 h, 5 µM (in vitro [14]; microsomes): 95%; AUC (Cynomolgus monkey [15]): 409 ng·h/mL
